From the CheMixHub viscosity set

Experiment: xn = mol fraction of the nth substance listed

CCCCCCCC(=O)OCC(COC(=O)CCCCCCC)OC(=O)CCCCCCC + CCCCO
viscosity [mPa·s], 101.33 kPa
Settings	x1 = 0.1	x1 = 0.2	x1 = 0.3	x1 = 0.4	x1 = 0.5	x1 = 0.6	x1 = 0.7	x1 = 0.8	x1 = 0.9
298 K	3.87	5.49	7.15	8.84	10.54	12.28	14.02	16.05	18
303 K	3.4	4.73	6.13	7.53	8.91	10.29	11.73	13.34	14.82
308 K	2.97	4.12	5.28	6.46	7.57	8.74	9.89	11.2	12.39
313 K	2.62	3.61	4.59	5.56	6.51	7.48	8.44	9.52	10.52

CCCCOCCO + CCCCO
101 kPa
Settings	viscosity [mPa·s]
298.15 K, x1 = 0.7025	2.645
303.15 K, x1 = 0.4	2.255
303.15 K, x1 = 0.6054	2.345
303.15 K, x1 = 0.8042	2.475
308.15 K, x1 = 0.7025	2.045

COC(=O)c1ccccc1 + CCCCO
viscosity [mPa·s], 100 kPa
Settings	x1 = 0.05	x1 = 0.1	x1 = 0.2	x1 = 0.3	x1 = 0.45	x1 = 0.6	x1 = 0.749	x1 = 0.849	x1 = 0.899	x1 = 0.95
293.2 K	2.62	2.397	2.097	1.922	1.787	1.746	1.777	1.836	1.885	1.95
298.2 K	2.308	2.119	1.866	1.719	1.606	1.574	1.604	1.659	1.703	1.761
303.2 K	2.041	1.882	1.668	1.545	1.453	1.429	1.459	1.509	1.549	1.6
308.2 K	1.813	1.678	1.5	1.398	1.32	1.303	1.333	1.381	1.417	1.464
313.2 K	1.616	1.505	1.354	1.267	1.204	1.193	1.224	1.269	1.303	1.345
